# Source: publication PMC11544713, “The Application of Untargeted Metabolomic Approaches for the Search of Common Bioavailable Metabolites in Human Plasma Samples from Lippia citriodora and Olea europaea Extracts” (Journal of Agricultural and Food Chemistry, 2024)
# Where a name gives a salt, the structure may show the parent alone.
# Assays:
# [1] = Acute intervention: nutrikinetics of plasma metabolites after ingestion of O. europaea extract (untargeted HPLC-ESI-QTOF-MS)
# Summary of the method: (§1)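 Fasted healthy volunteers (n = 8 per extract, placebo n = 9, double-blind) took one 500 mg capsule. Plasma was drawn at 0–10 h, protein-precipitated with methanol:ethanol and analysed by C18 HPLC-ESI-QTOF-MS in negative full scan (m/z 50–1700). Tmax was observed; Cmax and AUC are relative, from deconvoluted peak areas.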
# [2] = Acute intervention: nutrikinetics of plasma metabolites after ingestion of L. citriodora extract (untargeted HPLC-ESI-QTOF-MS)
# Summary of the method: as §1
# [3] = 0.5 h after O. europaea extract
# [4] = human plasma, 500 mg capsule of O. europaea (OE) extract, oral, mean ± SD
# [5] = 0.5 h after L. citriodora extract
# [6] = 1 h after L. citriodora extract
# [7] = 2 h after L. citriodora extract
# [8] = 4 h after L. citriodora extract
# [9] = 6 h after L. citriodora extract
# [10] = 8 h after L. citriodora extract
# [11] = 10 h after L. citriodora extract
# [12] = human plasma, 500 mg capsule of L. citriodora (LC) extract, oral, mean ± SD
Compound,"mean chromatographic area in plasma, T0.5 [1, 3]","mean chromatographic area in plasma, T1 ([1]; 1 h after O. europaea extract)","mean chromatographic area in plasma, T2 ([1]; 2 h after O. europaea extract)","mean chromatographic area in plasma, T4 ([1]; 4 h after O. europaea extract)","mean chromatographic area in plasma, T6 ([1]; 6 h after O. europaea extract)","mean chromatographic area in plasma, T8 ([1]; 8 h after O. europaea extract)","mean chromatographic area in plasma, T10 ([1]; 10 h after O. europaea extract)","Cmax: relative maximum plasma level [1, 4]","observed Tmax: time required to reach Cmax [1, 4] [h]","mean chromatographic area in plasma, T0.5 [2, 5]","mean chromatographic area in plasma, T1 [2, 6]","mean chromatographic area in plasma, T2 [2, 7]","mean chromatographic area in plasma, T4 [2, 8]","mean chromatographic area in plasma, T6 [2, 9]","mean chromatographic area in plasma, T8 [2, 10]","mean chromatographic area in plasma, T10 [2, 11]","AUC: area under the zero-moment curve [2, 12]","Cmax: relative maximum plasma level [2, 12]","observed Tmax: time required to reach Cmax [2, 12] [h]",further results
"COc1cc(C(=O)O)ccc1OS(=O)(=O)O [vanillic acid 4-O-sulfate isomer 1, vanillic acid 4-O-sulfate]",275,489,354,279,216,137,60,489 ± 147 relative chromatographic area,1.0 ± 0.0,0,0,97,395,548,588,365,3576 ± 3122 relative chromatographic area/h,874 ± 644 relative chromatographic area,8 ± 3,
homovanillic acid glucuronide,,,,,,,,,,,,,,,,,,,,"Cmax: relative maximum plasma level ([1]; human, in vivo, po, 500 mg): 199 ± 54 relative chromatographic area; mean chromatographic area in plasma, T0.5 ([1]; in vivo): 13; mean chromatographic area in plasma, T1 ([1]; in vivo): 94; mean chromatographic area in plasma, T2 ([1]; in vivo): 99; mean chromatographic area in plasma, T4 ([1]; in vivo): 182; mean chromatographic area in plasma, T6 ([1]; in vivo): 141; mean chromatographic area in plasma, T8 ([1]; in vivo): 80; mean chromatographic area in plasma, T10 ([1]; in vivo): 58; AUC: area under the zero-moment curve ([2]; human, in vivo, po, 500 mg): 1345 ± 1042 relative chromatographic area/h; Cmax: relative maximum plasma level ([2]; human, in vivo, po, 500 mg): 360 ± 219 relative chromatographic area; mean chromatographic area in plasma, T0.5 ([2]; in vivo): 0; mean chromatographic area in plasma, T1 ([2]; in vivo): 0; mean chromatographic area in plasma, T2 ([2]; in vivo): 0; mean chromatographic area in plasma, T4 ([2]; in vivo): 114; mean chromatographic area in plasma, T6 ([2]; in vivo): 232; mean chromatographic area in plasma, T8 ([2]; in vivo): 219; mean chromatographic area in plasma, T10 ([2]; in vivo): 214"
COc1cc(CCO)ccc1OS(=O)(=O)O [homovanillyl alcohol sulfate],0,94,111,61,0,0,0,135 ± 32 relative chromatographic area,2.0 ± 0.9,0,0,0,45,81,76,31,437 ± 278 relative chromatographic area/h,156 ± 49 relative chromatographic area,7 ± 2,
hydroxytyrosol glucuronide [hydroxytyrosol glucuronide isomer 2],1726,2553,1437,507,251,161,75,2627 ± 1167 relative chromatographic area,0.9 ± 0.2,0,0,0,48,81,34,23,350 ± 158 relative chromatographic area/h,106 ± 17 relative chromatographic area,8 ± 2,"observed Tmax: time required to reach Cmax ([1]; human plasma, 500 mg capsule of O. europaea (OE) extract, oral, mean ± SD, listed as hydroxytyrosol glucuronide): 1 h; observed Tmax: time required to reach Cmax ([2]; human plasma, 500 mg capsule of L. citriodora (LC) extract, oral, mean ± SD, listed as hydroxytyrosol glucuronide): 7 ± 2 h"
COc1cc(C=CC(=O)O)ccc1OS(=O)(=O)O [ferulic acid 4-sulfate],0,78,84,22,18,0,0,142 ± 20 relative chromatographic area,1.6 ± 0.5,33,131,259,230,222,152,39,1752 ± 1781 relative chromatographic area/h,354 ± 254 relative chromatographic area,3 ± 2,
hydroxytyrosol sulfate [hydroxytyrosol sulfate isomer 2],336,646,605,202,235,140,202,836 ± 359 relative chromatographic area,3 ± 3,0,0,138,289,575,591,686,3802 ± 2564 relative chromatographic area/h,902 ± 428 relative chromatographic area,8 ± 2,"observed Tmax: time required to reach Cmax ([1]; human plasma, 500 mg capsule of O. europaea (OE) extract, oral, mean ± SD, listed as hydroxytyrosol sulfate): 1 h; observed Tmax: time required to reach Cmax ([2]; human plasma, 500 mg capsule of L. citriodora (LC) extract, oral, mean ± SD, listed as hydroxytyrosol sulfate): 7 ± 2 h"
Cc1cccc(O)c1O [3-methylcatechol],290,235,50,64,16,13,0,307 ± 160 relative chromatographic area,0.6 ± 0.2,0,0,0,86,91,76,58,565 ± 407 relative chromatographic area/h,169 ± 59 relative chromatographic area,8 ± 3,
